Source: patent US4997771A, “Method for measuring the BZ-1 receptor binding activity in a test sample or test compound” (Schering Corporation, priority 1987, dated 1991)

Experiments:
[1] = biological target: T1, ^3 H-2-oxo-quazepam binding sites (BZ-1 receptors) in cerebellum (Rattus norvegicus, UniProt P18508+P62813); assay: ^3 H-2-oxo-quazepam competition binding, cerebellum
T1 construct: Cerebral cortex and cerebellum were dissected on ice and homogenized; tissue Charles River Breeding Laboratories (rats); host or cells: rat cerebellum synaptic membranes (washed P2 pellet)
Experimental: (§1) Male Spraque-Sawley rats (200 to 250 gms) from Charles River Breeding Laboratories, Mass., were used to obtain brain tissue. Animals were decapitated and their brains removed. Synaptic membranes were obtained following the procedure disclosed in Life Sc., 35, 105 (1984). Cerebral cortex and cerebellum were dissected on ice and homogenized in 20 volumes of ice cold 0.32 M sucrose using a glass homogenizer fitted with a teflon pestle. The homogenates were then centrifuged at 48,000 X g for 10 min, and the resultant P2 pellets were washed twice by re-centrifugation in 50 mM Na/K phosphate buffered saline (pH 7.4). The washed pellets were pooled and then resuspended in the same buffer to a final concentration of 50 mg of original tissue weight/ml.
(§2) Total reaction mixture volume was 1 ml which included: (a) 100 μl of either ^3 H-flunitrazepam or ^3 H-2-oxo-quazepam (tritiated at the α-carbon of the trifluoroethyl substituent located at the #1 position), yielding a final concentration of 0.5 nM (b) 100 μl of various concentrations of competing drugs dissolved or suspended in 50 mM phosphate buffered saline (pH 7.4) containing 4 mg/ml methylcellulose (c) 800 μl of tissue homogenate diluted such that a total of 5 mg of tissue was present in the final reaction mixture. In each competition experiment 25 to 30 concentrations of drug were used to obtain a complete dose response curve.
(§3) Incubations were carried out at 0° C. for 90 minutes. Samples were then filtered under vacuum through 25 mm diameter Whatman GF/B filters on a Millipore 1225 Sampling Manifold and quickly washed with 3×5 ml of ice-cold PBS buffer. Filter-bound radioactivity was quantified through liquid scintillation counting following overnight solubilization of the receptor-radioligand complex in "Scintosol" scintillation cocktail (Isolab, Inc.).
Compound assisted curve fitting was conducted on an Apple IIe computer using a program described in Br. J. Pharmacol., 80, 582P (1983) and Trends in Pharmaceutical Sci., 5, 47, (1984). […]

[2] = biological target: T2, ^3 H-2-oxo-quazepam binding sites (BZ-1 receptors) in rat cortex (Rattus norvegicus, UniProt P18508+P62813); assay: ^3 H-2-oxo-quazepam competition binding, rat cortex; conditions: for best-fit curve model: vs ^3 H-2-oxo-quazepam 0.5 nM
T2 construct: Cerebral cortex and cerebellum were dissected on ice and homogenized; tissue Charles River Breeding Laboratories (rats); host or cells: rat cerebral cortex synaptic membranes (washed P2 pellet)
Experimental: as §1, §2, §3
(§4) Compound assisted curve fitting was conducted on an Apple IIe computer using a program described in Br. J. Pharmacol., 80, 582P (1983) and Trends in Pharmaceutical Sci., 5, 47, (1984). Enhancements were made to the program to allow disk storage of data and printing of the program to allow disk storage of data and printing of the graphics display. The program determines whether the results from individual competition experiments are best interpreted on the basis of a 1 or 2 site model and also provides the most probable proportions of radioligand bound to each of the sites.
(§5) Selection among models was made by comparing the sum of squares residual values for the best single and 2-site models and determining through a partial F-test evaluation whether 2-site modelling produced a statistically meaningful (P<0.05) improvement in fit as described in Anal. Biochem., 107, 220 (1980). If not, the best single site model was considered the model of choice.

[3] = tested on: benzodiazepine (BZ) receptors in brain; conditions: literature; cited from earlier work
[4] = biological target: benzodiazepine sites (BZ-1 receptors) in rat cortex (Rattus norvegicus, UniProt P18508+P62813); assay: Saturation binding of ^3 H-2-oxo-quazepam in rat cortex; conditions: for non-specific binding: 0.5 nM
Experimental: as §1
Saturation binding studies were conducted utilizing ^3 H-2-oxo-quazepamin rat cortex over a range of concentrations from 0.1 to 30 nM. The separation between specific and non-specific binding indicated the suitability of ^3 H-2-oxo-quazepam as a radioligand for benzodiazepine sites. Specific binding was defined as the difference between total binding and binding in the presence of 100 nM unlabeled clonazepam. At a concentration of 0.5 nM, non-specific binding for the radioligand constituted only 5 to 10 percent of total binding.

[5] = tested on: ^3 H-flunitrazepam binding sites (benzodiazepine receptors BZ-1 and BZ-2) in rat cortex; assay: ^3 H-flunitrazepam competition binding, rat cortex; conditions: for difference in binding affinity for two BZ receptors (BZ-1 and BZ-2): vs ^3 H-flunitrazepam, average; for populations of binding sites distinguished: unlabeled drug vs ^3 H-flunitrazepam
Experimental: as §1, §2, §3, §4, §5

[6] = biological target: T3, ^3 H-flunitrazepam binding sites in rat cerebellum (BZ-1) (Rattus norvegicus, UniProt P18508+P62813); assay: ^3 H-flunitrazepam competition binding, rat cerebellum
T3 construct: Cerebral cortex and cerebellum were dissected on ice and homogenized; tissue Charles River Breeding Laboratories (rats); host or cells: rat cerebellum synaptic membranes (washed P2 pellet)
Experimental: as §1, with “weight/ml. […]” for “weight/ml.”
Incubations were carried out at 0° C. for 90 minutes. […] Filter-bound radioactivity was quantified through liquid scintillation counting following overnight solubilization of the receptor-radioligand complex in "Scintosol" scintillation cocktail (Isolab, Inc.). […]

[7] = doses far above tranquilizing doses; cited from earlier work
[8] = cats; doses below those that caused ataxia; cited from earlier work

O=C1CN=C(c2ccccc2F)c2cc(Cl)ccc2N1CC(F)(F)F [2-oxo-quazepam, 7-chloro-1-(2,2,2-trifluoroethyl)-5-(2-fluorophenyl)-1,3-dihydro-2H-1,4 benzodiazepine-2-one]
IC50 [1]: 13.6 nM
relative potency vs quazepam ([1]; cerebellum, vs ^3 H-2-oxo-quazepam): 19 times
IC50 [2]: 16.8 nM
relative potency vs quazepam ([2]; cortex, vs ^3 H-2-oxo-quazepam): 6 times
BZ-1 selectivity of binding ([2]; low concentrations (0.5 nM)): binds BZ-1 receptors almost exclusively
best-fit curve model [2]: single site curve fitting model
potency in cortex compared with cerebellum ([2]; vs ^3 H-2-oxo-quazepam, cortex and cerebellum): roughly equipotent
subpopulations of BZ receptors distinguished [3]: distinguish two subpopulations of benzodiazepine (BZ) receptors
non-specific binding [4]: < 5%
relative proportion of ^3 H-flunitrazepam binding sites, first-named subpopulation ([5]; rat cortex): 55%
relative proportion of ^3 H-flunitrazepam binding sites, second-named subpopulation ([5]; rat cortex): 45%
difference in binding affinity for two BZ receptors (BZ-1 and BZ-2) ([5]; rat cortex): 22 fold
populations of binding sites distinguished ([5]; rat cortex): distinguished two subpopulations
IC50 ([5]; vs ^3 H-flunitrazepam 0.5 nM, cortex, 0° C., 90 minutes, read-out: IC50, high affinity component): 9.3 nM
IC50 [6]: 8.8 nM
populations of binding sites distinguished ([6]; vs ^3 H-flunitrazepam, cerebellum): did not distinguish subpopulations of binding sites

[3H]C([3H])(N1C(=O)CN=C(c2ccccc2F)c2cc(Cl)ccc21)C(F)(F)F [^3 H-2-oxo-quazepam, 7-Chloro-1-^3 H-(2,2,2-Trifluoroethyl)-5-(2-Fluorophenyl)-1,3-Dihydro-2H-1,4 Benzodiazepine-2-One]
non-specific binding [4]: 5 to 10%
non-specific binding vs concentration ([4]; 0.1 to 30 nM, even after saturation of BZ-1 receptors): linear relationship with increasing concentration

CN1C(=O)CN=C(c2ccccc2F)c2cc([N+](=O)[O-])ccc21 [flunitrazepam, reference compound]
receptor subtype specificity of binding ([5]; benzodiazepine receptors): binds non-specifically to benzodiazepine receptors
populations of binding sites distinguished ([5]; rat cortex): only a single uniform population of sites

O=C1CN=C(c2ccccc2)c2cc(Cl)ccc2N1CC(F)(F)F [halazepam]
ataxic effects [7]: only weak ataxic effects

Fc1ccccc1C1=NCC(=S)N(CC(F)(F)F)c2ccc(Cl)cc21 [quazepam, 7-chloro-1-(2,2,2-trifluorethyl)-5-(2-fluorophenyl)-1,3-dihydro-2H-1,4 benzodiazpeine-2-thione, reference compound]
IC50 [1]: 258 nM
behavioural effect [8]: only drowsiness and sleep
IC50 [2]: 101 nM
best-fit curve model [2]: single site curve fitting model
difference in binding affinity for two BZ receptors (BZ-1 and BZ-2) ([5]; rat cortex): 54 fold
populations of binding sites distinguished ([5]; rat cortex): distinguished two subpopulations
